Results reported in article PMC6211316, “Synthesis and biological evaluation of 3-arylcoumarin derivatives as potential anti-diabetic agents” (Journal of Enzyme Inhibition and Medicinal Chemistry, 2018).

Experiments:
[1] = DPPH free radical scavenging; conditions: mean ± SD (n = 3)
How it was run: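 Sample solutions at various concentrations mixed 1:1 with DPPH (0.04 mg/mL) and reacted 30 min at room temperature; absorbance read at 517 nm against ethanol blank, corrected for sample absorbance. Scavenging % calculated versus DPPH alone, triplicate measurements, IC50 derived.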

STZ-diabetic mice = experiment: Acute hypoglycemic assay in STZ-diabetic mice; type: in vivo; conditions: STZ-diabetics mice
Protocol: Type II diabetes mellitus was induced in mice by a single intraperitoneal injection of freshly prepared STZ (Sigma Aldrich) dissolved in 0.1M citrate buffer, pH 4.5, in a volume of 110 mg/kg of bw. After 7 days of STZ administration, blood glucose levels of each mouse were determined. Mice with blood glucose levels higher than 11 mM were considered diabetic and were included in the study.
STZ-induced diabetic mice and normal mice were placed in single cages with wire-net floors and deprived of food for 12 h before experimentation but allowed free access to tap water throughout. The compounds (at the doses of 10, 30, and 100 mg/kg of bw) were suspended in 0.05% Tween-80 in saline solution. Glibenclamide (10 mg/kg of bw) was suspended in the same vehicle. The target compounds were freshly prepared immediately before experimentation and administered by the intragastrical route at the doses of 10 ml/kg of bw. Control mice received only the vehicle (0.05% Tween-80 in saline solution) by the same route. Blood glucose levels were measured at 0, 1.5, 3, 5, 7, and 9 h after drugs administration.

AGEs formation = experiment: In vitro inhibitory activity of AGEs formation (bovine serum albumin/glucose); type: biochemical; conditions: mean ± SD (n = 3)
How it was run: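 Bovine serum albumin (10 mg/mL) with 0.2 M glucose in 50 mM PBS, pH 7.4, plus 0.02% sodium azide, was mixed with compound solutions (0.5–1000 μg/mL in DMSO) and held 14 d at 37 °C. AGE fluorescence was read at ex 350/em 420 nm in triplicate. Inhibition was corrected with glucose-free blanks, and IC50 calculated.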

[2] = Oral toxicity to mice (Lorke's method); conditions: both sexes, mouse, in vivo, Kunming mice, observed 14 days
Protocol: With reference to Lorke’s method, kunming mice were used as targets to estimate the oral toxicity of each compound to mice. We select compounds 11, 17, 25, 28, and 35 at concentrations of 10, 100, and 1000 mg/kg to test their oral toxicity in the first phase, and 1600, 2900, and 5000 mg/kg at the second phase.
Experiments were performed on Kunming mice (male and female half, bw range, 25–30 g). Mice were housed in a climate and light controlled room with a 12 h light/dark cycle. Twelve hours before experiments, food was withheld, but animals had free access to drinking water. The compounds were suspended in vehicle (Tween-80, 0.2% in saline). The concentrations were adjusted to orally administrate 0.2 ml/10 g of bw. Mice were treated in two phases. In the first, intragastric doses of 10, 100 and 1000 mg/kg of bw of compounds were administered. On the second, the doses were adjusted to 1600, 2900, and 5000 mg/kg of bw of compounds. In both phases, mice were observed daily in a period of 14 days for mortality, toxic effects and/or changes in behavioural pattern. At the end of the experiments, the mice were sacrificed in a CO2 chamber.

Row | SMILES | IC50 [1] [µM] | Blood glucose concentration (STZ-diabetic mice; 10 mg/kg of bw per os, 0h) [mM] | % Variation of glycemia (STZ-diabetic mice; 10 mg/kg of bw per os, 1.5h) | Blood glucose concentration (STZ-diabetic mice; 10 mg/kg of bw per os, 1.5h) [mM] | % Variation of glycemia (STZ-diabetic mice; 10 mg/kg of bw per os, 3h) | Blood glucose concentration (STZ-diabetic mice; 10 mg/kg of bw per os, 3h) [mM] | % Variation of glycemia (STZ-diabetic mice; 10 mg/kg of bw per os, 5h) | Blood glucose concentration (STZ-diabetic mice; 10 mg/kg of bw per os, 5h) [mM] | % Variation of glycemia (STZ-diabetic mice; 10 mg/kg of bw per os, 7h) | Blood glucose concentration (STZ-diabetic mice; 10 mg/kg of bw per os, 7h) [mM] | % Variation of glycemia (STZ-diabetic mice; 10 mg/kg of bw per os, 9h) | Blood glucose concentration (STZ-diabetic mice; 10 mg/kg of bw per os, 9h) [mM] | Blood glucose concentration (STZ-diabetic mice; 30 mg/kg of bw per os, 0h) [mM] | % Variation of glycemia (STZ-diabetic mice; 30 mg/kg of bw per os, 1.5h) | Blood glucose concentration (STZ-diabetic mice; 30 mg/kg of bw per os, 1.5h) [mM] | % Variation of glycemia (STZ-diabetic mice; 30 mg/kg of bw per os, 3h) | Blood glucose concentration (STZ-diabetic mice; 30 mg/kg of bw per os, 3h) [mM] | % Variation of glycemia (STZ-diabetic mice; 30 mg/kg of bw per os, 5h) | Blood glucose concentration (STZ-diabetic mice; 30 mg/kg of bw per os, 5h) [mM] | % Variation of glycemia (STZ-diabetic mice; 30 mg/kg of bw per os, 7h) | also measured
1 | Cc1ccccc1-c1cc2ccc(O)cc2oc1=O [Compound 11, 7-Hydroxy-3-(2-methylphenyl)-coumarin] | 564.2 ± 5.2 | 24.9 ± 4.1 | (−17.27) % | 20.6 ± 5.9 | (−37.75) % | 15.5 ± 8.5 | (−48.59) % | 12.8 ± 10.4 | (−54.22) % | 11.4 ± 8.2 | (−52.21) % | 11.9 ± 8.5 | 25.3 ± 6.3 | (−20.95) % | 20.0 ± 6.3 | (−34.78) % | 16.5 ± 6.4 | (−55.41) % | 11.3 ± 4.0 | (−62.40) % | Blood glucose concentration (STZ-diabetic mice; 30 mg/kg of bw per os, 7h): 9.5 ± 3.9 mM; % Variation of glycemia (STZ-diabetic mice; 30 mg/kg of bw per os, 9h): (−68.14) %; Blood glucose concentration (STZ-diabetic mice; 30 mg/kg of bw per os, 9h): 8.1 ± 4.2 mM; Blood glucose concentration (STZ-diabetic mice; 100 mg/kg of bw per os, 0h): 23.5 ± 5.4 mM; % Variation of glycemia (STZ-diabetic mice; 100 mg/kg of bw per os, 1.5h): (−21.88) %; Blood glucose concentration (STZ-diabetic mice; 100 mg/kg of bw per os, 1.5h): 18.3 ± 3.9 mM; % Variation of glycemia (STZ-diabetic mice; 100 mg/kg of bw per os, 3h): (−34.89) %; Blood glucose concentration (STZ-diabetic mice; 100 mg/kg of bw per os, 3h): 15.3 ± 3.9 mM; % Variation of glycemia (STZ-diabetic mice; 100 mg/kg of bw per os, 5h): (−52.76) %; Blood glucose concentration (STZ-diabetic mice; 100 mg/kg of bw per os, 5h): 11.1 ± 4.4 mM; % Variation of glycemia (STZ-diabetic mice; 100 mg/kg of bw per os, 7h): (−62.21) %; Blood glucose concentration (STZ-diabetic mice; 100 mg/kg of bw per os, 7h): 8.9 ± 2.8 mM; % Variation of glycemia (STZ-diabetic mice; 100 mg/kg of bw per os, 9h): (−65.27) %; Blood glucose concentration (STZ-diabetic mice; 100 mg/kg of bw per os, 9h): 8.2 ± 2.6 mM; IC50 (AGEs formation): > 1000 µM; LD50 at 14 days [2]: > 5000 mg/kg
2 | Cc1ccc(-c2cc3c(O)cc(O)cc3oc2=O)cc1 [Compound 25, 5,7-Dihydroxy-3-(4-methylphenyl)-coumarin] | 603 ± 7.42 | 19.7 ± 6.1 | (−20.30) % | 15.7 ± 6.6 | (−24.37) % | 14.9 ± 6.5 | (−50.76) % | 9.7 ± 3.4 | (−64.97) % | 6.9 ± 3.9 | (−56.85) % | 8.5 ± 2.2 | 24.8 ± 4.9 | (−12.50) % | 21.7 ± 3.9 | (−36.23) % | 15.8 ± 4.5 | (−64.11) % | 8.9 ± 6.3 | (−63.71) % | Blood glucose concentration (STZ-diabetic mice; 30 mg/kg of bw per os, 7h): 9.0 ± 4.8 mM; % Variation of glycemia (STZ-diabetic mice; 30 mg/kg of bw per os, 9h): (−64.11) %; Blood glucose concentration (STZ-diabetic mice; 30 mg/kg of bw per os, 9h): 8.9 ± 3.8 mM; Blood glucose concentration (STZ-diabetic mice; 100 mg/kg of bw per os, 0h): 23.0 ± 4.8 mM; % Variation of glycemia (STZ-diabetic mice; 100 mg/kg of bw per os, 1.5h): (−20.44) %; Blood glucose concentration (STZ-diabetic mice; 100 mg/kg of bw per os, 1.5h): 18.3 ± 3.5 mM; % Variation of glycemia (STZ-diabetic mice; 100 mg/kg of bw per os, 3h): (−25.36) %; Blood glucose concentration (STZ-diabetic mice; 100 mg/kg of bw per os, 3h): 17.2 ± 2.9 mM; % Variation of glycemia (STZ-diabetic mice; 100 mg/kg of bw per os, 5h): (−56.95) %; Blood glucose concentration (STZ-diabetic mice; 100 mg/kg of bw per os, 5h): 9.9 ± 2.7 mM; % Variation of glycemia (STZ-diabetic mice; 100 mg/kg of bw per os, 7h): (−64.78) %; Blood glucose concentration (STZ-diabetic mice; 100 mg/kg of bw per os, 7h): 8.1 ± 1.6 mM; % Variation of glycemia (STZ-diabetic mice; 100 mg/kg of bw per os, 9h): (−60.43) %; Blood glucose concentration (STZ-diabetic mice; 100 mg/kg of bw per os, 9h): 9.1 ± 2.3 mM; IC50 (AGEs formation): 45.8 ± 1.27 µM; LD50 at 14 days [2]: > 5000 mg/kg
